Measured values taken from ChEMBL document CHEMBL5104138, “Discovery of pyridyl urea sulfonamide inhibitors of NaV1.7” (Bioorg Med Chem Lett, 2022).
≈ marks a conversion by molar mass, not a printed value. One block for each molecule: values may come before it.

Columns and labels:
[1] = biological target: Sodium channel protein type 9 subunit alpha (Homo sapiens, UniProt Q15858); assay: Inhibition of human Nav1.7 by PatchXpress assay
Cytochrome P450 3A4 [2] = biological target: T1, Cytochrome P450 3A4 (Homo sapiens, UniProt P08684); assay: Time dependent inhibition of CYP3A4 in human liver microsomes using midazolam as substrate incubated for 30 mins; format: ADME, Microsome
T1 sequence (P08684 whole entry): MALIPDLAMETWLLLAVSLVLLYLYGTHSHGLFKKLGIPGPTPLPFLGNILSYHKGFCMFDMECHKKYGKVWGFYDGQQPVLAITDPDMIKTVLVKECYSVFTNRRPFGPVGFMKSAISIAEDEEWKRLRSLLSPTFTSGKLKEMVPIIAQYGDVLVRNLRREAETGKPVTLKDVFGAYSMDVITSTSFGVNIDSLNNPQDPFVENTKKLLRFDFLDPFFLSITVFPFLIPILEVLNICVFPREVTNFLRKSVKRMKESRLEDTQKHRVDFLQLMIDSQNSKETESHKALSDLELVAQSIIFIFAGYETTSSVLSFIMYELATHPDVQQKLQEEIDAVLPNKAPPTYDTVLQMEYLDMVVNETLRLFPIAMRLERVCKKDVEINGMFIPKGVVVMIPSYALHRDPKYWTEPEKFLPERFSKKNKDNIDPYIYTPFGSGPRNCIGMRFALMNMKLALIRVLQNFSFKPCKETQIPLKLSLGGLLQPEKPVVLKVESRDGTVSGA

[3] = Clearance in rat at 0.5 mg/kg, iv; settings: in vivo
[4] = Lipophilicity, logD of compound at pH 7.4; format: physicochemical; settings: buffer
[5] = rat, in vivo, iv, 0.5 mg/kg
Description: Unbound clearance in rat at 0.5 mg/kg, iv

Cytochrome P450 3A4 [6] = biological target: T1, Cytochrome P450 3A4; assay: Time dependent inhibition of CYP3A4 in human liver microsomes using midazolam as substrate preincubated for 30 mins followed by substrate addition; format: ADME, Microsome
[7] = Intrinsic clearance in rat liver microsomes assessed as loss of parent compound incubated for 30 mins; format: ADME, Microsome; settings: read-out: CLH
[8] = Solubility of the compound at pH 7.4; format: physicochemical; settings: buffer
[9] = Unbound clearance in dog at 0.25 mg/kg, iv; format: ADME, organism-based, Canis lupus familiaris; settings: in vivo
Mus musculus [10] = assay: Antinociceptive activity in capsaicin-induced licking mouse model assessed as reduction in time spent on licking at 10 mg/kg, po relative to control; format: functional; set-up: scale not given: the % may be the effect or the level left
[11] = AUC in dog at 2 mg/kg, po; format: ADME, organism-based, Canis lupus familiaris; set-up: dose 2 mg/kg, route po; settings: in vivo
[12] = biological target: Sodium channel protein type 5 subunit alpha (Homo sapiens, UniProt Q14524); assay: Inhibition of human Nav1.5 at -50 mV holding potential by PatchXpress assay
Sequence of Sodium channel protein type 5 subunit alpha (Q14524 whole entry): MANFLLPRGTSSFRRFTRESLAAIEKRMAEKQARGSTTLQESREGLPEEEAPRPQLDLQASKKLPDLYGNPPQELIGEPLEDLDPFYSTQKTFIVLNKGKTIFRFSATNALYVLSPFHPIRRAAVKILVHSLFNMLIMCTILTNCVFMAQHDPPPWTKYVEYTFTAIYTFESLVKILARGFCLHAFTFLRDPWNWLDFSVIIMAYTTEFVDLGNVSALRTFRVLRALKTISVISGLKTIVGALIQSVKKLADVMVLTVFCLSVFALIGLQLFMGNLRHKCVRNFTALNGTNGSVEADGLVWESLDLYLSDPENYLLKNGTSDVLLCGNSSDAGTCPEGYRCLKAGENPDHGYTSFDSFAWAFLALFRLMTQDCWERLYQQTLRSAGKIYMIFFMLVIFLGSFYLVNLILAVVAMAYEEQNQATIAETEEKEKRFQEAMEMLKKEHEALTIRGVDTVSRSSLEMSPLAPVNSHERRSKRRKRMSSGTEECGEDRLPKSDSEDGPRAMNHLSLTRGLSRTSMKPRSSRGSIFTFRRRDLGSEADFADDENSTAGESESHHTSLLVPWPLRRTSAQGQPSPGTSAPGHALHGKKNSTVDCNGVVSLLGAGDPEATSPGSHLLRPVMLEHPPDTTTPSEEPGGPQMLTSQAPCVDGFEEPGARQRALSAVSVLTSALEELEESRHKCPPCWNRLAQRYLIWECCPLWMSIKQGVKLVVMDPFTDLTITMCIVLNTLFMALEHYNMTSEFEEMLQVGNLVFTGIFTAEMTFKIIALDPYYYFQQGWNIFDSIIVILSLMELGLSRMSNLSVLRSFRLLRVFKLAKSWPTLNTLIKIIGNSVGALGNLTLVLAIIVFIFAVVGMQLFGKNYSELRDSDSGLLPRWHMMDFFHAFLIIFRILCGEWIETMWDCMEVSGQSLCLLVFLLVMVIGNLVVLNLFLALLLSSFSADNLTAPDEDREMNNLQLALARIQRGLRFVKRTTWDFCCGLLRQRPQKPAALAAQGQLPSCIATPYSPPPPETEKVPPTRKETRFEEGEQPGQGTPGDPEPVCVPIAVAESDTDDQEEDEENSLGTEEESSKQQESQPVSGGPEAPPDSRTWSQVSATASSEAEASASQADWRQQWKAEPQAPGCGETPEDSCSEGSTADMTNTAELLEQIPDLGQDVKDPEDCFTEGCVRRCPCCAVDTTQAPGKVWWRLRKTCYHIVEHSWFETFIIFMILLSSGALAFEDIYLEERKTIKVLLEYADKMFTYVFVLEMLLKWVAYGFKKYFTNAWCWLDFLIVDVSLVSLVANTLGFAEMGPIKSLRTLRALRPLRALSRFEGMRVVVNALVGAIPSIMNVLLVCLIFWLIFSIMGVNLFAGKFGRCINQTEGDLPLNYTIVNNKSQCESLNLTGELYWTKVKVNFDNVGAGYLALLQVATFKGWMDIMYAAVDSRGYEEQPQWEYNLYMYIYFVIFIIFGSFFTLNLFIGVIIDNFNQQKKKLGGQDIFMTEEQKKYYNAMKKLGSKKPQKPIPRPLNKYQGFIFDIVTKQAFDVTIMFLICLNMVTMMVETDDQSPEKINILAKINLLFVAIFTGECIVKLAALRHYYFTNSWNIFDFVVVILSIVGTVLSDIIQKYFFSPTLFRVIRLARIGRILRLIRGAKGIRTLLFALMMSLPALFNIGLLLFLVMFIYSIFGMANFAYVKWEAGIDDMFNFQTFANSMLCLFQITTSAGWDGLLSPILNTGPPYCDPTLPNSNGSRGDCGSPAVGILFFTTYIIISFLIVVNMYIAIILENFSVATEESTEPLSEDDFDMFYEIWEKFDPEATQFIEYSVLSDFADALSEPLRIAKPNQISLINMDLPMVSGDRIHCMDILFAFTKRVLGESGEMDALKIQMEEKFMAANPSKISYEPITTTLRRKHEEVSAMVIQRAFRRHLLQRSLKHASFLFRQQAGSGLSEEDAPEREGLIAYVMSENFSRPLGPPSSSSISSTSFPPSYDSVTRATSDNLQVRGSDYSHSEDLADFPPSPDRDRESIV

[13] = Half life in rat at 10 mg/kg, po; format: ADME, organism-based; settings: in vivo
[14] = Clearance in dog at 0.25 mg/kg, iv; format: ADME, organism-based, Canis lupus familiaris; settings: in vivo
[15] = Oral bioavailability in mouse at 100 mg/kg; format: ADME, organism-based; settings: in vivo
[16] = half life in dog at 2 mg/kg, po; format: ADME, organism-based, Canis lupus familiaris; settings: in vivo
Mus musculus [17] = assay: Antinociceptive activity in mouse model of Histamine-induced itching assessed as reduction in scratching bouts at 10 mg/kg, po relative to control; format: functional; set-up: scale not given: the % may be the effect or the level left
[18] = AUC in mouse at 100 mg/kg, po; format: ADME, organism-based; set-up: dose 100 mg/kg, route po; settings: in vivo
Mus musculus [19] = assay: Antinociceptive activity in UV burn-induced thermal hyperalgesia mouse model assessed as reduction in latency time at 30 mg/kg, po relative to control; format: functional; set-up: scale not given: the % may be the effect or the level left
[20] = Half life in mouse at 100 mg/kg, po; format: ADME, organism-based; settings: in vivo
Cytochrome P450 2C9 = Cytochrome P450 2C9 (Homo sapiens, UniProt P11712); assay: Inhibition of CYP2C9 (unknown origin); format: ADME
Sequence of Cytochrome P450 2C9 (P11712 whole entry): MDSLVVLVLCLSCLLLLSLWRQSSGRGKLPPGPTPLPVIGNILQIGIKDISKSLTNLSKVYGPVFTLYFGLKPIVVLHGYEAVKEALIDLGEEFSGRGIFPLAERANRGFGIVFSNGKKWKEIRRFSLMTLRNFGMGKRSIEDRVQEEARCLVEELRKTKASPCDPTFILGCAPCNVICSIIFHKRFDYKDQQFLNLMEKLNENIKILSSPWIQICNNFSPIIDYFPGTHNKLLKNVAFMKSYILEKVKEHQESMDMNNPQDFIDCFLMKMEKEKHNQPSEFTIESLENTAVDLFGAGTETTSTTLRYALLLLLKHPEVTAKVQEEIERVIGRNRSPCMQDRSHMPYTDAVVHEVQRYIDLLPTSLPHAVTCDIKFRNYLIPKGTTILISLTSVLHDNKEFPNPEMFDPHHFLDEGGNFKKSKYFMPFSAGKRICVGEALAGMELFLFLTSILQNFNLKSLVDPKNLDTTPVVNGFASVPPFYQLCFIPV

[21] = Clearance in mouse; format: ADME, organism-based; settings: in vivo
Mus musculus [22] = assay: Antinociceptive activity in mouse model of Histamine-induced itching assessed as reduction in scratching bouts at 3 mg/kg, po relative to control; format: functional; set-up: scale not given: the % may be the effect or the level left
Mus musculus [23] = assay: Antinociceptive activity in mouse model of Histamine-induced itching assessed as reduction in scratching bouts at 30 mg/kg, po relative to control; format: functional; set-up: scale not given: the % may be the effect or the level left
[24] = Unbound clearance in mouse; format: ADME, organism-based; settings: in vivo
[25] = AUC in rat at 10 mg/kg, po; format: ADME, organism-based; set-up: dose 10 mg/kg, route po; settings: in vivo
[26] = Permeability in MDCK cells; format: ADME, cell-based, Canis lupus familiaris; settings: dog, read-out: permeability
[27] = Oral bioavailability in dog at 2 mg/kg; format: ADME, organism-based, Canis lupus familiaris; settings: in vivo
[28] = Oral bioavailability in rat at 10 mg/kg; format: ADME, organism-based; settings: in vivo
PXR (NR1I2) = biological target: T2, PXR (NR1I2) (Homo sapiens, UniProt O75469); assay: Activation of human PXR at 10 uM relative to control; format: toxicity; settings: read-out: Activity
T2 sequence (O75469 whole entry): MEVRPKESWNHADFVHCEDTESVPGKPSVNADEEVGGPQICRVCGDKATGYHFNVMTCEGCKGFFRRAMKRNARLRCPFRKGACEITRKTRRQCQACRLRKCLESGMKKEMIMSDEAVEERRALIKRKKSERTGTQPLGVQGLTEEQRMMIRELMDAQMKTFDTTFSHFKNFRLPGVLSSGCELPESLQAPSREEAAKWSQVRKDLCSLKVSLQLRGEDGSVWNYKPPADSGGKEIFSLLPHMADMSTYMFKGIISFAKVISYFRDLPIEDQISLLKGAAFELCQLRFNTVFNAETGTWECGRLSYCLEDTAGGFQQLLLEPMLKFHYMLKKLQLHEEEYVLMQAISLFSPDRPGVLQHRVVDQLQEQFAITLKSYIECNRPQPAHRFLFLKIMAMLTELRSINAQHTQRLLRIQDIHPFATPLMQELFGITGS

Cytochrome P450 2D6 [29] = biological target: T3, Cytochrome P450 2D6 (Homo sapiens, UniProt P10635); assay: Time dependent inhibition of CYP2D6 (unknown origin) incubated for 30 mins; format: ADME
T3 sequence (P10635 whole entry): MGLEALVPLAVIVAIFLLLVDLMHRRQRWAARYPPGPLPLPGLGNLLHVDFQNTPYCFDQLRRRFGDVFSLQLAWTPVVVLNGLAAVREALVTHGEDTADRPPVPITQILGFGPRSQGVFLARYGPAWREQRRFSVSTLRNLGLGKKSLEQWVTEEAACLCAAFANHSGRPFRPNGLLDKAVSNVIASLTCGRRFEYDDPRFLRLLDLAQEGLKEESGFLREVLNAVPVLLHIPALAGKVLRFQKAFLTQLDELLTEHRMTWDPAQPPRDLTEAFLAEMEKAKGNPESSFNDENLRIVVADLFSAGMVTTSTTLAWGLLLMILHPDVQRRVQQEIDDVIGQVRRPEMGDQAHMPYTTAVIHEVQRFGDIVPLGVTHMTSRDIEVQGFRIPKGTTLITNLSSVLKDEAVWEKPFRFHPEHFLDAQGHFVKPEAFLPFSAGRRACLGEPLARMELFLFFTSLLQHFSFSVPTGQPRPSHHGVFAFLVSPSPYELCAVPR

Cytochrome P450 2D6 [30] = biological target: T3, Cytochrome P450 2D6; assay: Time dependent inhibition of CYP2D6 (unknown origin) preincubated for 30 mins followed by substrate addition; format: ADME

SMILES: COc1cc(-c2ccc(Cl)c(C#N)c2)c(F)cc1-n1c(=O)ccc2cc(S(=O)(=O)Nc3ccon3)ccc21
- IC50 [1]: 0.008 µM
- clearance [3]: 2.1 L/h/kg
- CL free [5]: 607 L/h/kg

SMILES: CNC(=O)N(c1ccc(S(=O)(=O)Nc2cccnn2)cn1)c1cc(F)c(-c2ccc(F)c(OC(F)(F)F)c2)cc1OC
- IC50 (Cytochrome P450 3A4 [2]): > 50 µM
- clearance [3]: 0.7 L/h/kg
- IC50 (Cytochrome P450 2D6 [29]): 30 µM
- logD [4]: 1.8
- IC50 (Cytochrome P450 2D6 [30]): 19 µM
- CL free [5]: 69 L/h/kg
- IC50 (Cytochrome P450 3A4 [6]): > 50 µM

SMILES: CN(C)CCOC(c1ccccc1)c1ccccc1 [DIPHENHYDRAMINE]
- Activity (Mus musculus [23]): 73%

SMILES: CNC(=O)N(c1ccc(S(=O)(=O)Nc2ccon2)cn1)c1cc(Cl)c(-c2ccc(F)c(OCC(F)(F)F)c2)cc1OC
- IC50 [1]: 0.023 µM
- IC50 (Cytochrome P450 3A4 [2]): > 50 µM
- clearance [3]: 5.5 L/h/kg
- logD [4]: 0.9
- IC50 (Cytochrome P450 3A4 [6]): > 50 µM

SMILES: CNC(=O)N(c1ccc(S(=O)(=O)Nc2ccon2)cn1)c1cc(F)c(-c2ccc(F)c(OC(F)(F)F)c2)cc1OC
- IC50 (Cytochrome P450 3A4 [2]): > 50 µM
- clearance [3]: 2.9 L/h/kg
- CL free [5]: 424 L/h/kg
- IC50 (Cytochrome P450 3A4 [6]): > 50 µM

Second part, led by results:

- IC50 [1]: 0.13 µM
- IC50 (Cytochrome P450 3A4 [2]): > 50 µM
- clearance [3]: 0.03 L/h/kg
- logD [4]: 1
- CL free [5]: 16 L/h/kg
- IC50 (Cytochrome P450 3A4 [6]): 9 µM
SMILES: CNC(=O)N(c1ccc(S(=O)(=O)Nc2ncccn2)cn1)c1cc(F)c(-c2cccc(C(F)(F)F)c2)cc1OC

- IC50 (Cytochrome P450 3A4 [2]): 35 µM
- IC50 (Cytochrome P450 3A4 [6]): > 50 µM
SMILES: CNC(=O)N(c1ccc(S(=O)(=O)Nc2ccon2)cn1)c1cc(Cl)c(-c2cccc(OCC(F)(F)F)c2)cc1OC

- IC50 [1]: 5 µM
- IC50 ([1]; record 2): 0.01 µM
- IC50 (Cytochrome P450 3A4 [2]): 32 µM
- microsomal CLint [7]: 28 µL/min/mg
- clearance [3]: 0.78 L/h/kg
- logD [4]: 2.5
- CL free [5]: 132 L/h/kg
- IC50 (Cytochrome P450 3A4 [6]): > 50 µM
SMILES: COc1cc(-c2ccc(Cl)c(C)c2)ccc1-n1c(=O)ccc2cc(S(=O)(=O)Nc3ccon3)ccc21

- solubility [8]: 260 µM (≈ 159 µg/mL)
- CL free [9]: 3.6 L/h/kg
- AUC [11]: 200 µM·h
- IC50 (Cytochrome P450 3A4 [2]): > 50 µM
- half-life [13]: 4.6 h
- clearance [14]: 0.015 L/h/kg
- bioavailability [15]: 80%
- half-life [16]: 18 h
- AUC [18]: 1150 µM·h
- clearance [3]: 0.07 L/h/kg
- half-life [20]: 3.4 h
- IC50 (Cytochrome P450 2C9): 3.3 µM
- clearance [21]: 0.1 L/h/kg
- logD [4]: 1.4
- CL free [5]: 44 L/h/kg
- IC50 (Cytochrome P450 3A4 [6]): > 50 µM
- CL free [24]: 11 L/h/kg
- AUC [25]: 212 µM·h
- Papp [26]: 180 nm/s
- bioavailability [27]: 104%
- bioavailability [28]: 95%
SMILES: CNC(=O)N(c1ccc(S(=O)(=O)Nc2ncccn2)cn1)c1cc(F)c(-c2ccc(F)c(OC(F)(F)F)c2)cc1OC
- Activity (Mus musculus [10]): 63%
- IC50 [12]: 40 µM
- Activity (Mus musculus [17]): 83%
- Activity (Mus musculus [19]): 89%
- Activity (Mus musculus [22]): 55%
- Activity (Mus musculus [23]): 95%
- activity at 10 µM (PXR (NR1I2)): 3%

- IC50 (Cytochrome P450 3A4 [2]): > 50 µM
- IC50 (Cytochrome P450 3A4 [6]): > 50 µM
SMILES: CNC(=O)N(c1ccc(S(=O)(=O)Nc2ccon2)cn1)c1cc(Cl)c(-c2cc(OC)nc(C(F)(F)F)c2)cc1OC

- IC50 (Cytochrome P450 3A4 [2]): 11 µM
- logD [4]: 1.6
- IC50 (Cytochrome P450 3A4 [6]): > 50 µM
SMILES: CNC(=O)N(c1ccc(S(=O)(=O)Nc2ncccn2)cn1)c1cc(Cl)c(-c2ccc(F)c(OC(F)(F)F)c2)cc1OC

- IC50 [1]: 0.017 µM
- IC50 (Cytochrome P450 3A4 [2]): 5 µM
- IC50 (Cytochrome P450 3A4 [6]): > 50 µM
SMILES: CNC(=O)N(c1ccc(S(=O)(=O)Nc2ccon2)cn1)c1cc(Cl)c(-c2cccc(C(F)(F)F)c2)cc1OC
